According to patent publication US20060063210A1, “Histone deacetylase whole cell enzyme assay” (Methylgene, Inc., priority 2004, published 2006):
Blank lines part the entries; values can stand above or below the compound they belong to.

Assays:
recombinant Sirt1 = target: T1, recombinant Sirt1 (Homo sapiens, UniProt Q96EB6); experiment: recombinant Sirt1 enzyme assay in vitro (Fluor-de-Lys-SirT1 substrate); assay type: biochemical; details: for inhibition of recombinant Sirt1 in vitro: TSA up to 10 uM
T1 construct: purchased Biomol
T1 sequence (Q96EB6 1-747): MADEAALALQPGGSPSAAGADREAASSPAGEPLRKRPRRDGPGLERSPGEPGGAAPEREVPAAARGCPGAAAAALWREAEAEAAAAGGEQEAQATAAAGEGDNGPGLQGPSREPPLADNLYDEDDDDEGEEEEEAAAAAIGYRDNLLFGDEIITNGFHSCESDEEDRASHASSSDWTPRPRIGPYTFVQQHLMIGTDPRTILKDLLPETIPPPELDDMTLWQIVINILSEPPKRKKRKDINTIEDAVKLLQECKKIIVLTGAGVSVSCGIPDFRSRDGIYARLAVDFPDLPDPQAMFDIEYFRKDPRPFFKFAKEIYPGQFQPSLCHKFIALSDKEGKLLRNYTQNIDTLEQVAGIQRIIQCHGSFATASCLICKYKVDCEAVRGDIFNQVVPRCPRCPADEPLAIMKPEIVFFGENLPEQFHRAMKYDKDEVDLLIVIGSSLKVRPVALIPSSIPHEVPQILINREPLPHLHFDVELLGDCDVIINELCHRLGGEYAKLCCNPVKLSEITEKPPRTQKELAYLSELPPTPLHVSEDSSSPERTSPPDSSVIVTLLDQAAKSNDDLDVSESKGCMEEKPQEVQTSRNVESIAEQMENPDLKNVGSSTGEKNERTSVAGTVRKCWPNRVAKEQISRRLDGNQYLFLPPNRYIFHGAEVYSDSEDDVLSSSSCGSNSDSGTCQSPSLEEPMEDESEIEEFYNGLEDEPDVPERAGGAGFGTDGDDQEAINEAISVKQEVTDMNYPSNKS
Description: (§1) Human SirT1, 2, 3 recombinant enzymes were purchased from Biomol (Biomol, Plymouth Meeting, Philadelphia).
(§2) Reaction is read as described in Example 3.

SirT1 (HCT116 cells) = target: T2, SirT1 (HCT116 cells) (Homo sapiens, UniProt Q96EB6); experiment: whole cell sirtuin (SirT1) activity in HCT116 cells with Fluor-de-Lys-SirT1 substrate; assay type: cell-based; details: for inhibition of whole cell SirT1 activity: 1.5 hours pre-incubation, Fluor-de-Lys-SirT1 500 uM
T2 construct: endogenous in cells; host or cells: HCT116
T2 sequence (Q96EB6 1-747): T1 sequence (Q96EB6 1-747)
Description: Cultured cells (HCT116) were trypsinized and counted by trypan blue exclusion. Live cells (2×10^5) were distributed to each well of the 96-well plate. […] Independently, we fixed concentrations of either Fluor-de-Lys-SirT1 substrate or Fluor-de-Lys-SirT2 in whole cells and analyzed the effect of exogeneous NAD+ concentration on whole cell sirtuin activity (FIG. 7b). […] Therefore the reading was done immediately after stopping.
Cultured HCT116 cells were counted and distributed to each well of the 96-well plate. […] After addition of Sirtuin substrate (Fluor-de-Lys-SirT1, 500 uM) or HDAC substrate Boc-Lys(Ac)-AMC (300 uM), the cells are further incubated for an additional 2 hours. Reaction was stopped and read as described in Examples 3 and 6. […] This observation is consistent with our finding in Example 7 that TSA can not inhibit class III (Sirtuins) in vitro.

recombinant Sirt2 = target: T3, recombinant Sirt2 (Homo sapiens, UniProt Q8IXJ6); experiment: recombinant Sirt2 enzyme assay in vitro (Fluor-de-Lys-SirT2 substrate); assay type: biochemical; details: for inhibition of recombinant Sirt2 in vitro: TSA up to 10 uM; for IC50: 45 minutes, read-out: IC50 against recombinant Sirt2
T3 construct: purchased Biomol
T3 sequence (Q8IXJ6 1-389): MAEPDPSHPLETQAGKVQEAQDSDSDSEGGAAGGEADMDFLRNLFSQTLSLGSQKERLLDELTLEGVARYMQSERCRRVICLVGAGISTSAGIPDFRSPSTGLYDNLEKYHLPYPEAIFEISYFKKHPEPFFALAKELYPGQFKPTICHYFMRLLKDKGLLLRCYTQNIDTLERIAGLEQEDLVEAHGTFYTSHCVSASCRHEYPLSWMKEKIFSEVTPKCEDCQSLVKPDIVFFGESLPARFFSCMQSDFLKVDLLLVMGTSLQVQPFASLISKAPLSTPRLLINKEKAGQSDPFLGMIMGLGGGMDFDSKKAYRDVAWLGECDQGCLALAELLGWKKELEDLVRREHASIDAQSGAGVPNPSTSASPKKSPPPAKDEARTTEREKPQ
Description: as §1, §2

HDAC (HCT116 cells) = experiment: whole cell deacetylase (HDAC) assay in HCT116 cells with Boc-Lys(Ac)-AMC; assay type: cell-based, human; details: Boc-Lys(Ac)-AMC 300 uM
Description: Freshly trypsinized cells were dispensed into 96-well black Costar E1A/RIA plates (Corning Inc., Corning, N.Y.). Small molecule substrate Boc-Lys(Ac)-AMC (Bachem Biosciences Inc., King of Prussia, Philadelphia) was added to cell suspension with the final concentration of 300 uM. Cells were placed in 37° C. incubator with 5% CO2 for 90 minutes. Reaction was stopped by adding a freshly prepared Flouor-de-Lys™ deleveloper (Biomol, Plymouth Meeting, Philadelphia) with 1 uM TSA (Biomol) in assay buffer (25 mM Tris, HCl pH8.0, 137 mM NaCl, 2.7 mM KCl, 1 mM MgCl2) plus 1% NP-40. With the presence of 1% NP-40, both excellular and intracellular HDAC activity was measured in cultured cells altogether.
HDAC enzyme assay in intact cells was carried out as described in Example 3.
Cultured HCT116 cells were counted and distributed to each well of the 96-well plate. […] After addition of Sirtuin substrate (Fluor-de-Lys-SirT1, 500 uM) or HDAC substrate Boc-Lys(Ac)-AMC (300 uM), the cells are further incubated for an additional 2 hours. Reaction was stopped and read as described in Examples 3 and 6.

recombinant Sirt3 = target: T4, recombinant Sirt3 (Homo sapiens, UniProt Q9NTG7); experiment: recombinant Sirt3 enzyme assay in vitro (Fluor-de-Lys-SirT2 substrate); assay type: biochemical
T4 construct: purchased Biomol
T4 sequence (Q9NTG7 1-399): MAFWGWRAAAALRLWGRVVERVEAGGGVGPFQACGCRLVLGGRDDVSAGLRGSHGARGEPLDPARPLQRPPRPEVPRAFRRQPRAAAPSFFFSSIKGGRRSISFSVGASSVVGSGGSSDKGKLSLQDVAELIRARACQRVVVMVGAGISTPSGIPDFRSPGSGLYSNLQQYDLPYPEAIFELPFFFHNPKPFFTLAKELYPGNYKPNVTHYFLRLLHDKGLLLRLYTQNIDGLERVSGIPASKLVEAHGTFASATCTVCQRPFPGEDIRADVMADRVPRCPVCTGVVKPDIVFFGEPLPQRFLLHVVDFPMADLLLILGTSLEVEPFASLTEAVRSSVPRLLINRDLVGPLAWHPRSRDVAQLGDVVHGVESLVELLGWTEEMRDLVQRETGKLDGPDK
Description: as §1, §2

[1] = target: T5, SirT1 (mouse white blood cells) (Mus musculus, UniProt Q923E4); experiment: ex vivo whole cell Sirt1 activity in mouse white blood cells; assay type: cell-based; details: 90 minute incubation, 200 uM Fluor-de-Lys Sirt1
T5 construct: from tissue; host or cells: mouse white blood cells
T5 sequence (Q923E4 1-737): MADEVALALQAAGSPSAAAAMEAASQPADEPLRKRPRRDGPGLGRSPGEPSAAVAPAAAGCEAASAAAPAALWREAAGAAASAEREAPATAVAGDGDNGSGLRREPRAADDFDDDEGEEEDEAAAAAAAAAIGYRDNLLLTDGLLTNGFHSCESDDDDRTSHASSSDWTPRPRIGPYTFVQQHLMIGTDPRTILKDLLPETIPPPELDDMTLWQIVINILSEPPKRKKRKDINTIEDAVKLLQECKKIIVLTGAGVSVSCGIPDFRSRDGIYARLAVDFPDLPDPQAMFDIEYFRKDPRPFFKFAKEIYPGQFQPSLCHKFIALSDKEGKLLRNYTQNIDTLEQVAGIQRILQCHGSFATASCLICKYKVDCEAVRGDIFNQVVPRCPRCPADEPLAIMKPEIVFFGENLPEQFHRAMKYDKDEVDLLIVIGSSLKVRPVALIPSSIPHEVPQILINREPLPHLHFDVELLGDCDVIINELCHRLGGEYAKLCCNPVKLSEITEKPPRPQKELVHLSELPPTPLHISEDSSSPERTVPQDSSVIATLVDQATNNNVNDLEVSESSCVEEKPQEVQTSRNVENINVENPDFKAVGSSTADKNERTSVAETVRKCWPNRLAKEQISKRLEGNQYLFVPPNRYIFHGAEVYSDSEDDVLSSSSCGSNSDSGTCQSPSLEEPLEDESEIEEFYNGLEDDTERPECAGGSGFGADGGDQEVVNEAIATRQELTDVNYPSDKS
Description: Mouse blood was collected in heparin tubes. Erythrocytes were lysed with five volumes of Erythrocyte Lysis buffer (EL, Qiagen Canada Inc, Mississauga, Ontario). White blood cells were recovered by centrifugation (400×g for 5 min), washed and resuspended in RPMI (+10% FBS), then counted. […] After 90 minute incubation, reaction was stopped with one volume of assay buffer (50 mM Tris-Ci pH 8.0, 137 mM NaCl, 2.7 mM KCl, 1 mM MgCl2) supplemented with 1× Developer II (BioMol, Plymouth Meeting, Philadelphia) and 1% NP40.

inhibition of recombinant Sirt1 in vitro (recombinant Sirt1): does not inhibit
IC50 (recombinant Sirt1; substrate FldSirt1, 45 minutes, read-out: IC50 against recombinant Sirt1): > 10 µM
inhibition of whole cell SirT1 activity (SirT1 (HCT116 cells); HCT116 cells): not
inhibition of recombinant Sirt2 in vitro (recombinant Sirt2): does not inhibit
IC50 (recombinant Sirt2; substrate FldSirt2): > 10 µM
SMILES: CC(/C=C/C(=O)NO)=C\[C@@H](C)C(=O)c1ccc(N(C)C)cc1 [TSA, trichostatin A]
inhibition of whole cell HDAC activity (HDAC (HCT116 cells)): could inhibit whole cell HDAC activity

EC50 (recombinant Sirt2; substrate FldSirt2, activation, read-out: EC50 to activate recombinant Sirt2 in vitro): 912 µM
EC50 (recombinant Sirt3; substrate FldSirt2, activation, read-out: EC50 to activate recombinant Sirt3 in vitro): > 2000 µM
SMILES: Oc1ccc(C=Cc2cc(O)cc(O)c2)cc1 [Resveratrol]
activation of recombinant Sirt1 in vitro (recombinant Sirt1): can activate Sirt1 enzymes in vitro in a dose dependent manner
activation of whole cell sirtuin (SirT1) activity (SirT1 (HCT116 cells); HCT116 cells, 1.5 hour pre-incubation): could activate whole cell sirtuin (SirT1) activity in a dose-dependent manner

inhibition of recombinant Sirt1 in vitro (recombinant Sirt1): inhibits
inhibition of recombinant Sirt2 in vitro (recombinant Sirt2): inhibits
IC50 (recombinant Sirt2; substrate FldSirt2): 14 µM
inhibition of recombinant SirT3 in vitro (recombinant Sirt3): inhibits
IC50 (recombinant Sirt3; substrate FldSirt2, 45 minutes, read-out: IC50 against recombinant Sirt3): 575 µM
SMILES: Cc1ccc(C(=O)Nc2ccc(S(=O)(=O)O)c3cc(S(=O)(=O)O)cc(S(=O)(=O)O)c23)cc1NC(=O)c1cccc(NC(=O)Nc2cccc(C(=O)Nc3cc(C(=O)Nc4ccc(S(=O)(=O)O)c5cc(S(=O)(=O)O)cc(S(=O)(=O)O)c45)ccc3C)c2)c1 [suramin]
inhibition of whole cell SirT1 activity (SirT1 (HCT116 cells); HCT116 cells): inihibits whole cell SirT1 activity in a dose-dependent manner
inhibition of SirT1 in whole mouse white blood cells [1]: inhibits SirT1 enzymes in whole white blood cells

quenching of the whole cell sirtuin reaction (SirT1 (HCT116 cells); HCT116 whole cells): ineffective at quenching the reaction
SMILES: NC(=O)c1cccnc1 [nicotinamide]
